Results reported in article PMC11555526, “Development of 2-Aminoadenine-Based Proteolysis-Targeting Chimeras (PROTACs) as Novel Potent Degraders of Monopolar Spindle 1 and Aurora Kinases” (ACS Pharmacology & Translational Science, 2024).
pEC50: −log10 of the molar value.

How the values were obtained:
[1] = biological target: T1, AURKB (MV4-11^AURKB-HiBiT cells) (Homo sapiens, UniProt Q96GD4); assay: HiBiT assay, AURKB degradation; format: cell-based; details: 6 h treatment; for DC50: read-out: DC50 (half-maximal degradation concentration) AURKB
T1 construct: expressed in transfected cells; host or cells: MV4-11, lentiviral transduction (pRRL-PGK vector)
Outline: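 MV4-11 lines stably expressing HiBiT-tagged AURKA, AURKB or TTK (lentiviral) were treated with serial compound dilutions for the indicated times. Remaining tagged protein was read by lytic HiBiT luminescence, and DC50 was fitted with a four-parameter dose–response equation using concentrations showing sigmoidal behaviour.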

MV4-11 cells (naive) = assay: alamarBlue cell viability assay; format: cell-based, human; details: 72 h treatment, MV4-11 cells (naive); read-out: EC50 (concentration that decreases cell viability by 50%)
Outline: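 Cells exposed to compound concentration series or vehicle for 72 h (unless otherwise stated); alamarBlue added a few hours before end point. Read-out by fluorescence (ex 550/em 600 nm) or absorbance (570 nm, 600 nm reference).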

TTK = biological target: T2, TTK (Homo sapiens, UniProt P33981); assay: Immunoblot of TTK in CALU1 cells; format: cell-based; set-up: endogenous in cells; details: 6 h
T2 sequence (P33981 1-857): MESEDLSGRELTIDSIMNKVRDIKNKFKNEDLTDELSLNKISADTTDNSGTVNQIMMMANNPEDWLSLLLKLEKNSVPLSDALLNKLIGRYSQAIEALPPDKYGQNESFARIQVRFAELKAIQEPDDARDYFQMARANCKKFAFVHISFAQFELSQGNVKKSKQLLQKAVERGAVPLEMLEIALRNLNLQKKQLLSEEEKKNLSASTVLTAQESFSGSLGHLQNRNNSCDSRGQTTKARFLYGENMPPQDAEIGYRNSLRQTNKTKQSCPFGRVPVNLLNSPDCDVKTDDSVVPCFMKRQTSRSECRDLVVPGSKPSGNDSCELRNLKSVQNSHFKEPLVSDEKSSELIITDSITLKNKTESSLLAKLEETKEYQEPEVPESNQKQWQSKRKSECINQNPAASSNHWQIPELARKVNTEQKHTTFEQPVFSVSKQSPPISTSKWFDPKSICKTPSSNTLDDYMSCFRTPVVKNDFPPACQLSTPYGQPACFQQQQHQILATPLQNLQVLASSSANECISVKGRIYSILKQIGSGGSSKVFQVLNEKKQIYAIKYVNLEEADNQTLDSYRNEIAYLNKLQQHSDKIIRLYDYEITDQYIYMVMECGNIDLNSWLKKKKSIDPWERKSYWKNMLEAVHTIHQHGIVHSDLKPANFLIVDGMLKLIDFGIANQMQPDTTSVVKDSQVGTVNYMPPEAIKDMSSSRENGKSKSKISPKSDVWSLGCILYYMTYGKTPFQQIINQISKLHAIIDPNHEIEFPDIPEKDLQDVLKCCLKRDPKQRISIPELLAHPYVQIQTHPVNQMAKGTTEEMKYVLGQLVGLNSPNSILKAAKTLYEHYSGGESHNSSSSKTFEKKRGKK
Procedure: The cells were treated with compounds or vehicle for indicated time points and lysed in RIPA lysis buffer (50 mM HEPES pH 7.9, 140 mM NaCl, 1 mM EDTA, 1% Triton X-100, 0.1% SDS, 0.1% sodium deoxycholate) containing protease and phosphatase inhibitors (Sigma) for 20 min at 4 °C. Cell lysates were cleared by centrifugation, and protein concentration was determined with bicinchoninic acid assay. Equal amounts of protein per sample were separated by Bis-Tris-PAGE and transferred to PVDF membranes (Millipore). The membranes were blocked with 5% (w/v) nonfat dry milk in TBS-T [20 mM Tris–HCl, pH 7.5, 150 mM NaCl, 0.1% (v/v) Tween-20] for 1 h at room temperature and incubated with primary antibody at 4 °C overnight. Visualization was carried out using horseradish peroxidase (HRP)-labeled secondary antibodies and detected using a chemiluminescent HRP substrate (Millipore) in LAS3000 or LAS4000 mini (Fujifilm). Vinculin, GAPDH, or B-actin were used as a loading control. The loading control was probed along with the target antibody by cutting the membrane. For targets with similar molecular weights, the samples were run in duplicate and probed with their respective loading controls, although only one control was shown in the figure for all targets. The signal was quantified using ImageJ or Image Studio Lite against the corresponding loading controls. Antibodies used in this study were as follows: Aurora A/AIK (Cell Signaling Technology, 3092), Aurora B (Bethyl Laboratories, A300–431A), TTK (Santa Cruz Biotechnology, sc-56968), GAPDH (Cell Signaling Technology, 2118), B-Actin (Sigma, A5441), and Vinculin (Sigma, V9131). […]
Figure S2: Cellular degradation studies of SF1-based compounds. […]
(E), 18 (F), and 14 or 20 (G) for 6 h and compared with vehicle treated cells. (H-J) Immunoblots of TTK and AURKB. CALU1 cells were treated with indicated concentration of 14 or 20 (H), 44 or 47 (I), and 46 (J) for 6 h and compared with DMSO treated cells. All HiBiT data are represented as a mean ±s.d. from n=2 replicates. […]

T1 sequence (Q96GD4 1-345 isoform Q96GD4-5): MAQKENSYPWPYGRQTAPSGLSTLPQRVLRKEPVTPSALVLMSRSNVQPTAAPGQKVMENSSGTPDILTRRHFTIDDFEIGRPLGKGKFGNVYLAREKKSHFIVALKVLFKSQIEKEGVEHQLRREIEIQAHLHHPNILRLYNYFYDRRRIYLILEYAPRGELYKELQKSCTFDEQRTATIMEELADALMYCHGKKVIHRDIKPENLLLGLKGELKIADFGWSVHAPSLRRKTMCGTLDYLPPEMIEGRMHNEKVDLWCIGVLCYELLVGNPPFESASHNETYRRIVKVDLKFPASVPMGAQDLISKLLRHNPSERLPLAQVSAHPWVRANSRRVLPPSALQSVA

Row | Compound | Dmax (maximal degradation) AURKB [1] [%] | DC50 [1] [nM] | pEC50 (MV4-11 cells (naive)) | relative TTK level (immunoblot quantification, DMSO = 1.00) (TTK; 0.1 µM) | relative TTK level (immunoblot quantification, DMSO = 1.00) (TTK; 10 µM) | DC50 (half-maximal degradation concentration) AURKB [1] | relative TTK level (immunoblot quantification, DMSO = 1.00) (TTK; 0.01 µM)
1 | CC(C)S(=O)(=O)c1ccccc1Nc1nc(Nc2ccc(N3CCN(C(=O)CNC(=O)CCCC(=O)Nc4cccc5c4C(=O)N(C4CCC(=O)NC4=O)C5=O)CC3)cc2)nc2[nH]cnc12 (stereo not shown) [Compound 20] | 29.40 | 248 | 6.24 | 0.87 | – | – | –
2 | CC(C)S(=O)(=O)c1ccccc1Nc1nc(Nc2ccc(N3CCN(C(=O)CCCC(=O)Nc4cccc5c4C(=O)N(C4CCC(=O)NC4=O)C5=O)CC3)cc2)nc2[nH]cnc12 (stereo not shown) [Compound 14] | 38.80 | 168 | 6.67 | – | 1.00 | – | –
3 | Cc1ncsc1-c1ccc(CNC(=O)[C@@H]2C[C@@H](O)CN2C(=O)[C@@H](NC(=O)CCCC(=O)N2CCN(c3ccc(Nc4nc(Nc5ccccc5S(=O)(=O)C(C)C)c5nc[nH]c5n4)cc3)CC2)C(C)(C)C)cc1 [Compound 44] | 20.30 | – | 5.94 | 0.79 | – | – (compounds with degradation less than 25% were not calculated and reported as “–”) | 0.79
4 | Cc1ncsc1-c1ccc(CNC(=O)[C@@H]2C[C@@H](O)CN2C(=O)[C@@H](NC(=O)COCCOCC(=O)N2CCN(c3ccc(Nc4nc(Nc5ccccc5S(=O)(=O)C(C)C)c5nc[nH]c5n4)cc3)CC2)C(C)(C)C)cc1 [Compound 49] | 32.17 | 3690 | 5.59 | – | – | – | –
